Values of other authors in PMC7687107 (Chemmedchem, 2020).

Target: tRNA guanine transglycosylase (TGT) (Zymomonas mobilis, UniProt P28720)
Experiment: SPR
Type: binding

Sequence of tRNA guanine transglycosylase (TGT) (P28720 2-386): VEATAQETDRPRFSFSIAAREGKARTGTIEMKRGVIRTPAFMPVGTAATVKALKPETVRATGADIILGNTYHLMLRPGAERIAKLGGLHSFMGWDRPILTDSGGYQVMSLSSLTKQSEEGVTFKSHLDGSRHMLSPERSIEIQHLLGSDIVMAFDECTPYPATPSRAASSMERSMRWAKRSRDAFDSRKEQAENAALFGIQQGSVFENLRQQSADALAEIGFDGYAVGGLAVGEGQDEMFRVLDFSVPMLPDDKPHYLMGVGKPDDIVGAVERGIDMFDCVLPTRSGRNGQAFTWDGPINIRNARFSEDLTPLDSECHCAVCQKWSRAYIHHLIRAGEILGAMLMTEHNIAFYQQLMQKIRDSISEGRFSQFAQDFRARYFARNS

Kd: 0.068 ± 0.005 µM
Structure (SMILES): CNc1nc2c(CCC3OC(OC)C(O)C3O)c3[nH]c(N)nc(=O)c3cc2[nH]1 (stereo not shown) [compound 1, 6‐amino‐4‐[2‐(3,4‐dihydroxy‐5‐methoxyoxolan‐2‐yl)ethyl]‐2‐(methylamino)‐1H,5H‐imidazo[4,5‐g]quinazolin‐8‐one]
